# Results from paper PMC10272112 (Nature Communications, 2023).
# Where two headings read alike, the source gives them in different places.
# Tests used:
# [1] = molecular target: HDAC1 (Homo sapiens, UniProt Q13547); assay: Chemoproteomic competition pulldown assay; type: binding; set-up: endogenous in cells; host or cells: SW620, MV4-11, A549 lysates; details: for Kd: read-out: pKdapp (converted)
# Method: (§1) To identify proteins directly bound by lipoic acid, we employed a chemoproteomic competition assay. Briefly, (R/S)-LA was immobilized on sepharose beads via an amidation reaction to form an affinity matrix (abbreviated as iL; Fig. 1a). This affinity matrix can be incubated with cell lysate to pull down potential LA or LM target proteins and identify these targets via bottom-up proteomics. In a competition assay, free LA or LM were incubated with lysate at different concentrations before pulling down and quantifying target proteins. […] (Fig. 1b, see “Methods” for details). […] The lysate buffer used in this assay contains 1 mM DTT to mimic the intracellular reductive milieu and to reduce lipoic acid and LM. […] Additional competition assays performed in lung adenocarcinoma cell A549 lysate also identified HDAC1, HDAC2, and HDAC6 as targets (Supplementary Fig. 1b). Amongst the three cell lines tested, HDACs were the only confidently identified targets across the 1500–3000 proteins quantified in these assays. […] We validated the results by analogous pulldown competition assays using two other affinity matrices prepared via the immobilization of either the HDAC inhibitor Quisinostat (iQ) and an analog of the class IIa HDAC inhibitor Bürli’s 31[14] (iC)[12]. We have previously shown that these affinity matrices specifically bind to the active sites of HDACs and have used them for HDACi selectivity profiling. Indeed, binding of (R/S)-LA and (R/S)-LM to HDAC1, HDAC2, HDAC3, HDAC6, and, to a lesser extent, HDAC8 was confirmed in these assays (Supplementary Fig. 1c, d). No binding to class IIa HDACs or the recently discovered common HDAC inhibitor off-target MBLAC2 was observed (Supplementary Fig. 1e)[12]. […] This observation might reflect electrostatic repulsion between the HDAC10 active site gate-keeper glutamic acid residues[15],[16] and the terminal carboxylic acid of LA.
# (§2) To assess the degree of protein depletion from lysates by the affinity matrix, a second pulldown (PDPD) with fresh beads was performed using the unbound protein fraction from the vehicle control flow through. The beads were washed (1 × 1 mL of lysis buffer without inhibitors and only 0.4% Igepal, 2 × 2 mL of lysis buffer without inhibitors and only 0.2% Igepal), and captured proteins were denatured with 8 M urea buffer, alkylated with 55 mM chloroacetamide and digested with Trypsin according to standard procedures. The resulting peptides were desalted on a C18 filter plate (Sep-Pak® tC18 µElution Plate, Waters), vacuum dried, and stored at −20 °C until LC–MSMS measurement.
# (§3) For the competition assays, relative binding was calculated based on the protein intensity ratio to the DMSO control for every single inhibitor concentration. EC50 values were derived from a four-parameter log-logistic regression with variable slope (constrain: bottom > 0). The obtained EC50 values were multiplied with a protein-dependent correction factor (cf), resulting in the apparent Kd value (Kd^app). The correction factor is determined by calculating the ratio of the protein intensity of two consecutive pulldowns of the vehicle control sample[13]. Targets of the inhibitors were annotated manually according to published procedures[12],[46],[47]. […] Additionally, the number of unique peptides and MSMS counts per condition were taken into account. Positive target binding across several independent experiments performed with different cell lysates further substantiated our confidence for a true positive drug-target binding event.
# [2] = molecular target: HDAC2 (Homo sapiens, UniProt Q92769); assay: Chemoproteomic competition pulldown assay; type: binding; set-up: endogenous in cells; host or cells: SW620, MV4-11, A549 lysates
# Chain of HDAC2 (Q92769 whole entry): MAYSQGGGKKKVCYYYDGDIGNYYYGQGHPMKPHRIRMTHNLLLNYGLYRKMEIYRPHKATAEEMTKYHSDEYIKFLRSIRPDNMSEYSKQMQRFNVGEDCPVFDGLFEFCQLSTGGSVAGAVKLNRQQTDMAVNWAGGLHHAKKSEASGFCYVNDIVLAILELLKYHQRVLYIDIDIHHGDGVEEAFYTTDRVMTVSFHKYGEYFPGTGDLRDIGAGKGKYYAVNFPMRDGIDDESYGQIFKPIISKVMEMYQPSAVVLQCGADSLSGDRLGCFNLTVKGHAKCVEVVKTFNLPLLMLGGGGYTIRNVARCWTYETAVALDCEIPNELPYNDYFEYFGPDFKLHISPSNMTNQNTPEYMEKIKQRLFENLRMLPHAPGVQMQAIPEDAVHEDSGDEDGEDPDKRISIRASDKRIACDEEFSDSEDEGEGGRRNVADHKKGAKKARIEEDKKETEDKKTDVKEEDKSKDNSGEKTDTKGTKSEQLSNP
# Method: as §1, §2, §3
# [3] = iL, A549 lysate, log10 M -4.52288
# [4] = iL, A549 lysate, log10 M -5.52288
# [5] = iL, A549 lysate, log10 M -6.52288
# [6] = iL, A549 lysate, log10 M -7.52288
# [7] = iL, A549 lysate, log10 M -8.52288
# [8] = iL, SW620 lysate, log10 M -3.52288
# [9] = iL, SW620 lysate, log10 M -4.52288
# [10] = iL, SW620 lysate, log10 M -5.52288
# [11] = iL, SW620 lysate, log10 M -6.52288
# [12] = iQ, SW620 lysate, log10 M -3.52288
# [13] = iQ, SW620 lysate, log10 M -4.52288
# [14] = iQ, SW620 lysate, log10 M -5.52288
# [15] = iQ, SW620 lysate, log10 M -6.52288
# [16] = iL, SW620, read-out: pKdapp (converted)
# [17] = iQ, SW620, read-out: pKdapp (converted)
# [18] = iL, MV4-11 lysate, log10 M -3.52288
# [19] = iL, MV4-11 lysate, log10 M -4.52288
# [20] = iL, MV4-11 lysate, log10 M -5.52288
# [21] = iL, MV4-11 lysate, log10 M -6.52288
# Chain of HDAC1 (Q13547 whole entry): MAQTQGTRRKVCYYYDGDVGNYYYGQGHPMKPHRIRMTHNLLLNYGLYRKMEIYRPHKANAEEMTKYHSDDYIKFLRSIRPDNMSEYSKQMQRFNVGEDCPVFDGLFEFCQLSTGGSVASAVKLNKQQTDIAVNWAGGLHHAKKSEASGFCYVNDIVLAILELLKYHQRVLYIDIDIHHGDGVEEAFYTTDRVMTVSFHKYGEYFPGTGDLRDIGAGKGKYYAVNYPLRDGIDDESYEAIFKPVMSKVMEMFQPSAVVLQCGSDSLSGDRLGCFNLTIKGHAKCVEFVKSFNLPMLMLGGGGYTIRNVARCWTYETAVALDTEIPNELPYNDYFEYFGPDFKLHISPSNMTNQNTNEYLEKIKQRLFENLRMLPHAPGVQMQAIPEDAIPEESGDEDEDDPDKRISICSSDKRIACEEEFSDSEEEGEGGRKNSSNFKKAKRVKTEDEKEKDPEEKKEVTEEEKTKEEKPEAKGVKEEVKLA
smiles,measurement,setting,value
"O=C(O)CCCCC1CCSS1 (racemic) [(R/S)-LA, (R/S)-lipoic acid]",Kd,"[1]; iL, A549",1 µM
same,relative binding vs DMSO,"[1]; iL, A549 lysate, log10 M -4",0.3621
same,relative binding vs DMSO,[1]; [3],0.1828
same,relative binding vs DMSO,"[1]; iL, A549 lysate, log10 M -5",0.2687
same,relative binding vs DMSO,[1]; [4],0.5244
same,relative binding vs DMSO,"[1]; iL, A549 lysate, log10 M -6",0.7392
same,relative binding vs DMSO,[1]; [5],0.8303
same,relative binding vs DMSO,[1]; [6],1.235
same,relative binding vs DMSO,"[1]; iL, A549 lysate, log10 M -8",1.138
same,relative binding vs DMSO,[1]; [7],1.054
same,Kd,"[1]; iL, SW620",7.94 µM
same,relative binding vs DMSO,[1]; [8],0.1153
same,relative binding vs DMSO,"[1]; iL, SW620 lysate, log10 M -4",0.1408
same,relative binding vs DMSO,[1]; [9],0.5904
same,relative binding vs DMSO,"[1]; iL, SW620 lysate, log10 M -5",0.9976
same,relative binding vs DMSO,[1]; [10],0.8296
same,relative binding vs DMSO,"[1]; iL, SW620 lysate, log10 M -6",0.9942
same,relative binding vs DMSO,[1]; [11],0.9252
same,relative binding vs DMSO,"[1]; iL, SW620 lysate, log10 M -7",1.135
same,Kd,"[1]; iQ, SW620",25.1 µM
same,relative binding vs DMSO,[1]; [12],0.2247
same,relative binding vs DMSO,"[1]; iQ, SW620 lysate, log10 M -4",0.2525
same,relative binding vs DMSO,[1]; [13],0.6007
same,relative binding vs DMSO,"[1]; iQ, SW620 lysate, log10 M -5",0.7446
same,relative binding vs DMSO,[1]; [14],0.8354
same,relative binding vs DMSO,"[1]; iQ, SW620 lysate, log10 M -6",0.8396
same,relative binding vs DMSO,[1]; [15],0.9165
same,relative binding vs DMSO,"[1]; iQ, SW620 lysate, log10 M -7",0.8126
same,Kd,"[2]; iL, A549, read-out: pKdapp (converted)",1 µM
same,relative binding vs DMSO,"[2]; iL, A549 lysate, log10 M -4",0.3867
same,relative binding vs DMSO,[2]; [3],0.2342
same,relative binding vs DMSO,"[2]; iL, A549 lysate, log10 M -5",0.3145
same,relative binding vs DMSO,[2]; [4],0.7222
same,relative binding vs DMSO,"[2]; iL, A549 lysate, log10 M -6",0.7592
same,relative binding vs DMSO,[2]; [5],1.015
same,relative binding vs DMSO,[2]; [6],1.14
same,relative binding vs DMSO,"[2]; iL, A549 lysate, log10 M -8",1.179
same,relative binding vs DMSO,[2]; [7],1.15
same,Kd,[2]; [16],6.31 µM
same,relative binding vs DMSO,[2]; [8],0.08452
same,relative binding vs DMSO,"[2]; iL, SW620 lysate, log10 M -4",0.1723
same,relative binding vs DMSO,[2]; [9],0.723
same,relative binding vs DMSO,"[2]; iL, SW620 lysate, log10 M -5",1.4202
same,relative binding vs DMSO,[2]; [10],0.8654
same,relative binding vs DMSO,"[2]; iL, SW620 lysate, log10 M -6",1.086
same,relative binding vs DMSO,[2]; [11],0.8422
same,relative binding vs DMSO,"[2]; iL, SW620 lysate, log10 M -7",1.138
same,Kd,[2]; [17],31.6 µM
same,relative binding vs DMSO,[2]; [12],0.2247
same,relative binding vs DMSO,"[2]; iQ, SW620 lysate, log10 M -4",0.2743
same,relative binding vs DMSO,[2]; [13],0.6023
same,relative binding vs DMSO,"[2]; iQ, SW620 lysate, log10 M -5",0.7491
same,relative binding vs DMSO,[2]; [14],0.82
same,relative binding vs DMSO,"[2]; iQ, SW620 lysate, log10 M -6",0.8431
same,relative binding vs DMSO,[2]; [15],0.9314
same,relative binding vs DMSO,"[2]; iQ, SW620 lysate, log10 M -7",0.8052
"NC(=O)CCCCC1CCSS1 (racemic) [(R/S)-LM, (R/S)-lipoamide]",relative binding vs DMSO,[1]; [18],0.1265
same,relative binding vs DMSO,"[1]; iL, MV4-11 lysate, log10 M -4",0.2225
same,relative binding vs DMSO,[1]; [19],0.3978
same,relative binding vs DMSO,"[1]; iL, MV4-11 lysate, log10 M -5",0.749
same,relative binding vs DMSO,[1]; [20],0.6057
same,relative binding vs DMSO,"[1]; iL, MV4-11 lysate, log10 M -6",0.6823
same,relative binding vs DMSO,[1]; [21],0.771
same,relative binding vs DMSO,"[1]; iL, MV4-11 lysate, log10 M -7",0.9295
same,Kd,"[1]; iL, MV411",10 µM
same,Kd,"[1]; iL, SW620",12.6 µM
same,Kd,"[1]; iQ, SW620",20 µM
same,relative binding vs DMSO,[1]; [12],0.1684
same,relative binding vs DMSO,"[1]; iQ, SW620 lysate, log10 M -4",0.2856
same,relative binding vs DMSO,[1]; [13],0.6671
same,relative binding vs DMSO,"[1]; iQ, SW620 lysate, log10 M -5",1.011
same,relative binding vs DMSO,[1]; [14],0.8661
same,relative binding vs DMSO,"[1]; iQ, SW620 lysate, log10 M -6",1.096
same,relative binding vs DMSO,[1]; [15],1.037
same,relative binding vs DMSO,"[1]; iQ, SW620 lysate, log10 M -7",1.154
same,relative binding vs DMSO,[2]; [18],0.0982
same,relative binding vs DMSO,"[2]; iL, MV4-11 lysate, log10 M -4",0.1933
same,relative binding vs DMSO,[2]; [19],0.3304
same,relative binding vs DMSO,"[2]; iL, MV4-11 lysate, log10 M -5",0.6612
same,relative binding vs DMSO,[2]; [20],0.6399
same,relative binding vs DMSO,"[2]; iL, MV4-11 lysate, log10 M -6",0.7735
same,relative binding vs DMSO,[2]; [21],0.8518
same,relative binding vs DMSO,"[2]; iL, MV4-11 lysate, log10 M -7",0.9297
same,Kd,"[2]; iL, MV4-11 lysate, read-out: Kd app",14 µM
same,Kd,"[2]; iL, MV411, read-out: pKdapp (converted)",10 µM
same,Kd,[2]; [16],20 µM
same,Kd,[2]; [17],20 µM
same,relative binding vs DMSO,[2]; [12],0.1341
same,relative binding vs DMSO,"[2]; iQ, SW620 lysate, log10 M -4",0.2239
same,relative binding vs DMSO,[2]; [13],0.5192
same,relative binding vs DMSO,"[2]; iQ, SW620 lysate, log10 M -5",0.7829
same,relative binding vs DMSO,[2]; [14],0.822
same,relative binding vs DMSO,"[2]; iQ, SW620 lysate, log10 M -6",0.953
same,relative binding vs DMSO,[2]; [15],0.8561
same,relative binding vs DMSO,"[2]; iQ, SW620 lysate, log10 M -7",0.9474
